Test: Gamma scintigraphy studies of stavudine absorption
Assay type: in vivo
Method: It has been found in gamma scintigraphy studies that stavudine is well absorbed in the upper intestine. The absorption in the colon is approximately one half that of the small intestine. The optimal formulation would be designed to release approximately 40% of the stavudine in four hours and the remainder over the next twelve to twenty hours. A 100 mg. extended dosage form of stavudine, therefore, would be designed to have the same bioavailability as the commercial 40 mg. immediate release capsules given twice daily. […] A problem in the formulation of a suitable extended dosage form of stavudine is its sensitivity to moisture that causes it to hydrolyze, primarily into thymine. This moisture sensitivity has not been a problem with the commercial non-sustained release dosage form of stavudine because it is a dry granulation that is filled into hard gelatin capsules. However, sustained release dosage forms conventionally require different compounding procedures typically including a granulation step involving an aqueous medium. […] In accordance with the present invention, a method has been found whereby stavudine can be successfully compounded into an extended release formulation utilizing conventional techniques without appreciable loss of potency due to hydrolysis.

Cc1cn([C@H]2C=C[C@@H](CO)O2)c(=O)[nH]c1=O [stavudine, 3′-deoxy-2′,3′-didehydrothymidine]
absorption in the colon relative to that of the small intestine: approximately one half
absorption in the upper intestine: well absorbed
